{
  "source": "paper PMC2279149",
  "about": "“Mouse N-acetyltransferase type 2, the homologue of human N-acetyltransferase type 1” (Biochemical Pharmacology, 2008)",
  "key": {"mouse Nat2 [1]": {"biological_target": "T1, mouse Nat2 (Mus musculus, UniProt P50295)", "T1 construct": "The mouse Nat2 open-reading frame [22] was sub-cloned into pET28b(+); hexa-histidine tag (His-tag, from pET28b(+)) (N, cleaved yes); made in house; host or cells: Escherichia coli Rosetta(DE3)pLysS", "T1 sequence (P50295 1-290)": "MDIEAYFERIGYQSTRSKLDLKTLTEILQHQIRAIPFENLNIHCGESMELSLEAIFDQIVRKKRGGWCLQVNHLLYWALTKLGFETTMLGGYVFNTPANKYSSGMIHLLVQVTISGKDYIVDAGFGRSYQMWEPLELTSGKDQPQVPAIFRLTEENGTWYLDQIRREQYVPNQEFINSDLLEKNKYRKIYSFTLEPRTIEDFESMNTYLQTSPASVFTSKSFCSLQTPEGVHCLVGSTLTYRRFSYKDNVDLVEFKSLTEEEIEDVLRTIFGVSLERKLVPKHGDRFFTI", "experiment": "Substrate specific activity of mouse Nat2 (rate of CoA production, DTNB)", "assay_type": "biochemical", "conditions": "substrate 500 μM, AcCoA 400 μM, 25 °C, pH 8.0", "description": "The rate of production of the free thiol Coenzyme A by NAT, in the presence of a range of known NAT acetyl-acceptor substrates, was determined by using Ellman's reagent, 5,5′-dithio-bis(2-nitrobenzoic acid) (DTNB) as previously described [[2,26]]. The substrate (500 μM) and purified recombinant NAT were pre-incubated (25 °C, 5 min) in 96-well flat-bottomed polystyrene plates (Costar®, Corning Inc.) in 20 mM Tris–HCl (pH 8.0). AcCoA (400 μM) was added to start the reaction in a final volume of 100 μL. The reaction was quenched with the addition of 25 μL of guanidine–HCl solution (6.4 M guanidine–HCl, 0.1 M Tris–HCl (pH 7.3)) containing 5 mM DTNB. The absorbance at 405 nm was measured on a plate-reader (Sunrise, Tecan). Assay buffer was used to replace substrate, AcCoA or NAT for control reactions. The amount of CoA produced in the assay was determined in comparison with a CoA standard curve.\nSubstrate abbreviations used for the substrate selectivity assays are as follows: aniline (ANL), 4-aminobenzoic acid (PABA), 4-aminosalicylic acid (4AS), 5-aminosalicylic acid (5AS), 4-chloroaniline (CLA), 4-bromoaniline (BRA), 4-iodoaniline (IOA), 4-methoxyanline (ANS), 4-ethoxyaniline (EOA), 4-butoxyanline (BOA), 4-hexyloxyaniline (HOA), 4-phenoxyaniline (POA), 4-aminoveratrole (4AV), 2-aminofluorene (2AF), 4-aminobenzoyl-L-glutamate (pABGlu), sulfamethazine (SMZ), procainamide (PRO), 4-aminopyridine (APY), isoniazid (INH), hydralazine (HDZ) and phenylhydrazine (PHZ). The stock concentration of substrate was 100 mM dissolved in DMSO, such that the final concentration of DMSO was less than 5% in the assays. DMSO only controls were carried out.\nFig. 2 Comparison of the substrate specific activity profiles of mouse Nat2, human NAT1 and human NAT2. The substrate specific activity profiles for mouse Nat2 (grey bars), human NAT1 (cross-hatched bars) and human NAT2 (black bars) are shown. The activity of mouse Nat2 was determined by measuring the rate of CoA production, as described in Section 2. Purified mouse Nat2 (0.125 μg) was incubated with arylamine substrate (each at 500 μM) and AcCoA (400 μM) in assay buffer (20 mM Tris–HCl (pH 8.0)) containing 0.5% (v/v) DMSO at 25 °C. The specific activities were determined from the linear initial rates of reaction. All measurements were performed in triplicate and are expressed as mean ± standard deviation relative to the most rapidly acetylated substrate. The human NAT1 and NAT2 data are taken from. The abbreviations are defined in Section 2.\nThe rate of hydrolysis of AcCoA was measured in the presence of a wide range of acetyl-acceptors (known NAT substrates, at 500 μM) and mouse Nat2 as described in the Methods section and Supplementary Fig. 1. The assays were performed in the presence of 5% (v/v) DMSO."}, "[2]": {"conditions": "cited from earlier work"}, "mouse Nat2 [3]": {"biological_target": "T1, mouse Nat2", "experiment": "Inhibition of mouse Nat2 acetylation of PABA (colorimetric DMAB assay)", "assay_type": "biochemical", "description": "The rates of arylamine acetylation by NATs were determined colorimetrically as previously described, but with minor modifications. Each assay contained the enzyme, arylamine substrate (see each figure legends for concentrations) and AcCoA (400 μM) in a total volume of 100 μL in assay buffer (20 mM Tris–HCl (pH 8.0), 1 mM DTT). Initially, the enzyme and substrate mixtures were pre-incubated at 25 °C for 5 min and AcCoA was added to start the reaction. The reaction was quenched using 20% (w/v) trichloroacetic acid (TCA) at different time intervals. The stopped reaction was centrifuged (16,000 × […], 10 min) to pellet the precipitated proteins. The stopped reaction mixture (200 μL) was added to 800 μL of 5% (w/v) 4-(N,N-dimethylamino)benzaldehyde (DMAB) in 9:1 acetonitrile:water to develop the colour. The absorption at 450 nm was measured with a Hitachi U-2001 UV–vis spectrophotometer, with the amount of residual substrate in the reaction was determined by comparison with a standard curve.\nThe inhibitory effect of steroids on the rate of acetylation of arylamines by mouse Nat2 was measured by using the colorimetric DMAB assay as described in Section 2. Test compounds (50 μM, 2% DMSO unless specified) were pre-incubated with recombinant mouse Nat2 (3 ng) and PABA (75 μM) for 10 min at room temperature. AcCoA (400 μM) was added to start the reaction and the reaction mixture was incubated at 37 °C. The total reaction volume was 100 μL. Reactions were stopped at various time intervals by the addition of 100 μL of 20% (w/v) TCA. The colour was developed and measured as described in Section 2. The linear initial rate of reaction was determined and the percentage inhibition was calculated relative to the control activity measured without the inhibitor. All measurements were performed in triplicate and are expressed as mean ± standard deviation. *2% (v/v) ethanol **5% (v/v) DMSO used to dissolve the compounds in the assay."}, "[4]": {"parameters": "method as in PMID 11502892", "conditions": "after a soy-based meal; cited from earlier work"}, "mouse Nat2 [5]": {"biological_target": "T1, mouse Nat2", "experiment": "1D 1H NMR titration of mouse Nat2 with ligand", "assay_type": "binding", "conditions": "8 equivalents of bisphenol A; 20 °C, pH 7.0", "description": "1D ^1H NMR spectra for hamster and mouse Nat2 were collected at 20 °C using a jump-return sequence. This sequence enabled the observation of H^N peaks which exchange to a significant extent with H2O. Spectra were collected using a 600 MHz spectrometer using a sweep width of 12,500 Hz. Unlabelled hamster and mouse Nat2 were used at a concentration of 10 mg/mL in the buffer described above. The titration of mouse Nat2 with bisphenol A was carried out by stepwise addition of small volumes (5–20 μL) of a concentrated solution of bisphenol A (100 mM in deuterated DMSO) to the mouse Nat2 solution in the NMR tube. The highest concentration of DMSO in the sample used was 2.8%. DMSO alone had no effect on the NMR spectrum of mouse Nat2 using concentrations up to 5%."}, "[6]": {"conditions": "xenobiotic oestrogens, recombinant mouse Nat2 3 ng, PABA 75 μM, AcCoA 400 μM, 37 °C, read-out: IC50 mNAT2"}, "[7]": {"conditions": "steroidogenic compounds, inhibitor 1–500 μM, recombinant mouse Nat2 3 ng, PABA 75 μM, AcCoA 400 μM, 37 °C, read-out: IC50"}},
  "note": "Like-named read-outs stand apart in the source and are kept apart here.",
  "data": [
    {"smiles": "Nc1ccc2c(c1)Cc1ccccc1-2", "note": "[2AF, 2-aminofluorene]", "values": [
      {"measurement": "Specific activity of mouse Nat2 with substrate", "setting": "mouse Nat2 [1]", "value": "high specific activities"},
      {"measurement": "Specific activity of mouse Nat2 with substrate", "setting": "mouse Nat2 [1]; listed as 2-aminofluorene", "value": "readily acetylates"}
    ]},
    {"smiles": "Nc1ccc(C(=O)O)cc1", "note": "[PABA, 4-aminobenzoic acid]", "values": [
      {"measurement": "Specific activity of mouse Nat2 with substrate", "setting": "mouse Nat2 [1]", "value": "high specific activities"}
    ]},
    {"smiles": "CC/C(=C(\\c1ccccc1)c1ccc(OCCN(C)C)cc1)c1ccccc1", "note": "[Tamoxifen]", "values": [
      {"measurement": "Intratumoral level", "setting": "[2]", "value": "micromolar concentrations"}
    ]},
    {"smiles": "C[C@H]1CCC[C@H](O)CCC/C=C/c2cc(O)cc(O)c2C(=O)O1", "note": "[Alpha-Zearalenol]", "values": [
      {"measurement": "IC50", "setting": "mouse Nat2 [3]; [6]", "value": "70 ± 10", "unit": "µM"}
    ]},
    {"smiles": "Nc1ccc(O)c(C(=O)O)c1", "note": "[5AS, 5-aminosalicylic acid]", "values": [
      {"measurement": "Specific activity of mouse Nat2 with substrate", "setting": "mouse Nat2 [1]", "value": "high specific activities"}
    ]},
    {"smiles": "CCN(CC)CCNC(=O)c1ccc(N)cc1", "note": "[procainamide]", "values": [
      {"measurement": "Specific activity of mouse Nat2 with substrate", "setting": "mouse Nat2 [1]", "value": "low specific activities"}
    ]},
    {"smiles": "C[C@]12CC[C@@H]3c4ccc(O)cc4CC[C@H]3[C@@H]1CCC2=O", "note": "[Estrone]", "values": [
      {"measurement": "IC50", "setting": "mouse Nat2 [3]; [7]", "value": "370 ± 10", "unit": "µM"}
    ]},
    {"smiles": "O=c1c(-c2ccc(O)cc2)coc2cc(O)cc(O)c12", "note": "[Geni stein, genistein]", "values": [
      {"measurement": "IC50", "setting": "mouse Nat2 [3]", "value": "45 ± 5", "unit": "µM"},
      {"measurement": "Circulating plasma concentration", "setting": "[4]", "value": "≤ 18", "unit": "µM"}
    ]},
    {"smiles": "C[C@]12CC[C@@H]3c4ccc(O)cc4CC[C@H]3[C@@H]1CC[C@@H]2O", "note": "[17-Hydroxy-β-estradiol]", "values": [
      {"measurement": "IC50", "setting": "mouse Nat2 [3]; [7]", "value": "55 ± 5", "unit": "µM"}
    ]},
    {"smiles": "CC(=O)[C@@]1(O)CC[C@H]2[C@@H]3CCC4=CC(=O)CC[C@]4(C)[C@H]3CC[C@@]21C", "note": "[17-Hydroxy-progesterone]", "values": [
      {"measurement": "IC50", "setting": "mouse Nat2 [3]; [7]", "value": "> 500", "unit": "µM"}
    ]},
    {"smiles": "C[C@]12CC[C@H]3[C@@H](CCC4=CC(=O)CC[C@@]43C)[C@@H]1CC[C@@H]2O", "note": "[Testosterone]", "values": [
      {"measurement": "IC50", "setting": "mouse Nat2 [3]; [7]", "value": "> 500", "unit": "µM"}
    ]},
    {"smiles": "C[C@]12CCC(=O)C=C1CC[C@@H]1[C@@H]2CC[C@]2(C)C(=O)CC[C@@H]12", "note": "[Androsteinedione]", "values": [
      {"measurement": "IC50", "setting": "mouse Nat2 [3]; [7]", "value": "> 500", "unit": "µM"}
    ]},
    {"smiles": "CC(C)(c1ccc(O)cc1)c1ccc(O)cc1", "note": "[Bisphenol A]", "values": [
      {"measurement": "IC50", "setting": "mouse Nat2 [3]; [6]", "value": "290 ± 10", "unit": "µM"},
      {"measurement": "Change in chemical shift of histidine peak 1 (downfield)", "setting": "mouse Nat2 [5]", "value": "~0.12", "unit": "ppm"},
      {"measurement": "Change in chemical shift of histidine peak 4 (upfield)", "setting": "mouse Nat2 [5]", "value": "~0.08", "unit": "ppm"}
    ]},
    {"smiles": "C[C@H]1CCC[C@@H](O)CCC/C=C/c2cc(O)cc(O)c2C(=O)O1", "note": "[Beta-Zearalenol]", "values": [
      {"measurement": "IC50", "setting": "mouse Nat2 [3]; [6]", "value": "450 ± 10", "unit": "µM"}
    ]},
    {"smiles": "Cc1cc(C)nc(NS(=O)(=O)c2ccc(N)cc2)n1", "note": "[sulfamethazine]", "values": [
      {"measurement": "Specific activity of mouse Nat2 with substrate", "setting": "mouse Nat2 [1]", "value": "low specific activities"}
    ]},
    {"smiles": "NNc1nncc2ccccc12", "note": "[HDZ, hydralazine]", "values": [
      {"measurement": "Specific activity of mouse Nat2 with substrate", "setting": "mouse Nat2 [1]", "value": "low specific activities"}
    ]},
    {"smiles": "C[C@H]1CCCC(=O)CCC/C=C/c2cc(O)cc(O)c2C(=O)O1", "note": "[Zearalenone]", "values": [
      {"measurement": "IC50", "setting": "mouse Nat2 [3]", "value": "220 ± 10", "unit": "µM"}
    ]},
    {"smiles": "NNC(=O)c1ccncc1", "note": "[INH, isoniazid]", "values": [
      {"measurement": "Specific activity of mouse Nat2 with substrate", "setting": "mouse Nat2 [1]", "value": "low specific activities"}
    ]},
    {"smiles": "CC(=O)[C@H]1CC[C@H]2[C@@H]3CC=C4C[C@@H](O)CC[C@]4(C)[C@H]3CC[C@]12C", "note": "[Pregnelone]", "values": [
      {"measurement": "IC50", "setting": "mouse Nat2 [3]; [7]", "value": "> 100", "unit": "µM"}
    ]},
    {"smiles": "Nc1ccc(C(=O)O)c(O)c1", "note": "[4AS, 4-aminosalicylic acid]", "values": [
      {"measurement": "Specific activity of mouse Nat2 with substrate", "setting": "mouse Nat2 [1]", "value": "high specific activities"}
    ]},
    {"smiles": "NNc1ccccc1", "note": "[PHZ, phenylhydrazine]", "values": [
      {"measurement": "Specific activity of mouse Nat2 with substrate", "setting": "mouse Nat2 [1]", "value": "low specific activities"}
    ]}
  ]
}
